Assay results: patent publication US10160755B2 (Plexxikon Inc., priority 2015, dated 2018)

Each molecule was assayed against T1, BA/F3-FLT3-ITD + F691L cells (Homo sapiens, UniProt P36888, F691L, cells depend on it, form not given) (assay: BA/F3-FLT3-ITD + F691L cell proliferation assay (CellTiter-Glo)). Settings: BaF3 FLT3 ITD/F691L cells; read-out: Cell Activity (IC50 μM) BaF3_FLT3_ITD/F691L.
T1 sequence (P36888 1-993 F691L): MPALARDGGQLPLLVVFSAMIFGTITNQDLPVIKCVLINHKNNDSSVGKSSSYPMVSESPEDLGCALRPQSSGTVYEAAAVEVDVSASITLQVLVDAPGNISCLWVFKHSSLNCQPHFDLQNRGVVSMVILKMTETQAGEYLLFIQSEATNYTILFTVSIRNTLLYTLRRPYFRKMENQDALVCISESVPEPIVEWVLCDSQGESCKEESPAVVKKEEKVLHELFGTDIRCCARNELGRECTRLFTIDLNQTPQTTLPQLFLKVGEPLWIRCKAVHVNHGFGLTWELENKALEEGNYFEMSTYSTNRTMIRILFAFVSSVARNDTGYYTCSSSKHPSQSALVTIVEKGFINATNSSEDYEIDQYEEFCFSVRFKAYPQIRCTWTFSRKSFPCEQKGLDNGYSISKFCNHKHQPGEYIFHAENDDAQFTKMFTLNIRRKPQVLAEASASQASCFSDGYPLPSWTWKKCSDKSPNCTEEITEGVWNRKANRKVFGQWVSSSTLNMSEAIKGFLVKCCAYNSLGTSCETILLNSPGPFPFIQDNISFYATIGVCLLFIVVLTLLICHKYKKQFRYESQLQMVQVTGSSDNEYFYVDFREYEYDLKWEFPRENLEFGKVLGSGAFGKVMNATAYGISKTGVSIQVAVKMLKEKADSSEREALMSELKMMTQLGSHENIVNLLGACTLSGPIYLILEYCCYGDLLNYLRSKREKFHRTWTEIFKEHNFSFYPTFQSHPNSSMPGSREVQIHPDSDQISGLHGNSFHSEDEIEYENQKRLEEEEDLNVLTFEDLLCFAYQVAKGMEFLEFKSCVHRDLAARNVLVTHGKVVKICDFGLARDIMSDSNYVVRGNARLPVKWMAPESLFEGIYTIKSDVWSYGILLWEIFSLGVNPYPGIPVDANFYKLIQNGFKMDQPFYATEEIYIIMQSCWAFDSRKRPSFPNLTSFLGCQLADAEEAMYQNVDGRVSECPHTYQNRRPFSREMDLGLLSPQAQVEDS
Assay type: cell-based, murine
Method in brief: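 Murine BA/F3 cells transfected with full-length FLT3 carrying ITD plus D835Y or F691L, grown without IL-3 so growth depends on FLT3. Seeded at 1×10^4 cells/well and dosed with 8 points, 10 to 0.0046 μM, 0.2% DMSO, for three days at 37 °C. IC50 from CellTiter-Glo luminescence (ATP content).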

Row | Compound | GI50 [µM]
1 | COc1cnc2[nH]cc(-c3ccc4ncn(C(C)(C)C)c4c3)c2c1 [P-074, 1-tert-butyl-6-(5-methoxy-1H-pyrrolo[2,3-b]pyridin-3-yl)benzimidazole] | 0.0001 to 1
2 | CC(C)(C)n1cnc2ccc(-c3c[nH]c4ncc(-c5ccnc(C#N)c5)cc34)cc21 [P-291, 4-[3-(3-tert-butylbenzimidazol-5-yl)-1H-pyrrolo[2,3-b]pyridin-5-yl]pyridine-2-carbonitrile] | 0.0001 to 1
3 | CC(C)(C)n1cnc2ccc(-c3c[nH]c4ncc(-c5cccc(N6CCCS6(=O)=O)c5)cc34)cc21 [P-278, 2-[3-[3-(3-tert-butylbenzimidazol-5-yl)-1H-pyrrolo[2,3-b]pyridin-5-yl]phenyl]-1,2-thiazolidine 1,1-dioxide] | 0.0001 to 1
4 | COc1ncc(-c2cnc3[nH]cc(-c4ccc5ncn(C6CCCNC6)c5c4)c3c2)cn1 (stereo not drawn) [P-276, 5-(2-methoxypyrimidin-5-yl)-3-[3-(3-piperidyl)benzimidazol-5-yl]-1H-pyrrolo[2,3-b]pyridine] | 10 to 200
5 | c1cc(-c2cnc3[nH]cc(-c4ccc5ncn(C6CCCNC6)c5c4)c3n2)cc(N2CCCCC2)c1 (stereo not drawn) [P-337, 7-[3-(3-piperidyl)benzimidazol-5-yl]-2-[3-(1-piperidyl)phenyl]-5H-pyrrolo[2,3-b]pyrazine] | 0.0001 to 1
6 | c1cc(-c2cnc3[nH]cc(-c4ccc5ncn(C6CCCNC6)c5c4)c3c2)cc(N2CCOCC2)c1 (stereo not drawn) [P-317, 4-[3-[3-[3-(3-piperidyl)benzimidazol-5-yl]-1H-pyrrolo[2,3-b]pyridin-5-yl]phenyl]morpholine] | 0.0001 to 1
7 | CC(C)(C)n1cnc2ccc(-c3c[nH]c4ncc(-c5ccc(N6CCCCC6)cc5)nc34)cc21 [P-345, 7-(3-tert-butylbenzimidazol-5-yl)-2-[4-(1-piperidyl)phenyl]-5H-pyrrolo[2,3-b]pyrazine] | 0.0001 to 1

The remaining lines, values ahead:

Row | GI50 [µM] | Compound
8 | 0.0001 to 1 | COc1cnc2[nH]cc(-c3ccc4ncn(C5CCC5)c4c3)c2c1 [P-061, 1-cyclobutyl-6-(5-methoxy-1H-pyrrolo[2,3-b]pyridin-3-yl)benzimidazole]
9 | 0.0001 to 1 | CC(C)(C)n1cnc2ccc(-c3c[nH]c4ncc(-c5ccnc(C#N)c5)nc34)cc21 [P-301, 4-[7-(3-tert-butylbenzimidazol-5-yl)-5H-pyrrolo[2,3-b]pyrazin-2-yl]pyridine-2-carbonitrile]
10 | 0.0001 to 1 | CC(C)(C)n1cnc2ccc(-c3c[nH]c4ncc(-c5ccnc(N6CCCS6(=O)=O)c5)nc34)cc21 [P-294, 2-[4-[7-(3-tert-butylbenzimidazol-5-yl)-5H-pyrrolo[2,3-b]pyrazin-2-yl]-2-pyridyl]-1,2-thiazolidine 1,1-dioxide]
11 | 0.0001 to 1 | CC(C)(C)n1cnc2ccc(-c3c[nH]c4nnc(Cl)cc34)cc21 [P-314, 5-(3-tert-butylbenzimidazol-5-yl)-3-chloro-7H-pyrrolo[2,3-c]pyridazine]
12 | 0.0001 to 1 | Cc1ncc(C#Cc2cnc3[nH]cc(-c4ccc5ncn(C(C)(C)C)c5c4)c3n2)cn1 [P-284, 7-(3-tert-butylbenzimidazol-5-yl)-2-[2-(2-methylpyrimidin-5-yl)ethynyl]-5H-pyrrolo[2,3-b]pyrazine]
13 | 0.0001 to 1 | CN1CCN(c2cccc(-c3cnc4[nH]cc(-c5ccc6ncn(C7CCCNC7)c6c5)c4n3)c2)CC1 (stereo not drawn) [P-332, 2-[3-(4-methylpiperazin-1-yl)phenyl]-7-[3-(3-piperidyl)benzimidazol-5-yl]-5H-pyrrolo[2,3-b]pyrazine]
14 | 0.0001 to 1 | COc1cc(-c2cc3c(-c4ccc5ncn(C(C)(C)C)c5c4)c[nH]c3nn2)ccn1 [P-315, 5-(3-tert-butylbenzimidazol-5-yl)-3-(2-methoxy-4-pyridyl)-7H-pyrrolo[2,3-c]pyridazine]
15 | 0.0001 to 1 | CC(C)(C)n1cnc2ccc(-c3c[nH]c4ncc(-c5ccc(N6CCC(F)(F)CC6)nc5)nc34)cc21 [P-356, 7-(3-tert-butylbenzimidazol-5-yl)-2-[6-(4,4-difluoro-1-piperidyl)-3-pyridyl]-5H-pyrrolo[2,3-b]pyrazine]
